Columns and labels:
[1] = tested on: Mus musculus; assay: In vivo inhibition of PDE5 in mouse assessed as increase in pCREB-Ser133 level in hippocampus at 40 mg/kg, ip measured after 1 hr by Western blot analysis; type: functional; parameters: scale not given: the % may be the effect or the level left
[2] = target: Histone deacetylase 5 (Homo sapiens, UniProt Q9UQL6); assay: Inhibition of human HDAC5
[3] = target: T1, Histone deacetylase 1 (Homo sapiens, UniProt Q13547); assay: Inhibition of full length human recombinant C-terminal FLAG/His-tagged HDAC1 expressed in baculovirus infected sf9 cells using fluorogenic HDAC substrate 3 after 4 hrs fluorescence assay
T1 sequence (Q13547 whole entry): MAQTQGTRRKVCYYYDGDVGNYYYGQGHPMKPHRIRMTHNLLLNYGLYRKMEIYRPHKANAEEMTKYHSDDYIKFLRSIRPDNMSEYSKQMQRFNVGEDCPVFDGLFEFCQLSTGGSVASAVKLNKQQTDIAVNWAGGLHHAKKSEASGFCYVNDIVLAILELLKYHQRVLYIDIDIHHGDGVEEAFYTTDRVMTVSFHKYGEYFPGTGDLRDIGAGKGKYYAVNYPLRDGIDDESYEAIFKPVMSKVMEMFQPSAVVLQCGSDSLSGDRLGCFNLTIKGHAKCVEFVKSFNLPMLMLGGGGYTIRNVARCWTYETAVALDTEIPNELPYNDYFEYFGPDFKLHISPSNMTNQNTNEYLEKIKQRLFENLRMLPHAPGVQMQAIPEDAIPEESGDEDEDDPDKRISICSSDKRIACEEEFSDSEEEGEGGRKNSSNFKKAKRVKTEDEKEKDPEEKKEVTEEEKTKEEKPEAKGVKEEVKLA

[4] = target: High affinity cGMP-specific 3',5'-cyclic phosphodiesterase 9A (Homo sapiens, UniProt O76083); assay: Inhibition of full length human recombinant N-terminal GST-tagged PDE9A2 expressed in baculovirus infected sf9 cells using cGMP as substrate after 30 mins by fluorescence assay
Sequence of High affinity cGMP-specific 3',5'-cyclic phosphodiesterase 9A (O76083 whole entry): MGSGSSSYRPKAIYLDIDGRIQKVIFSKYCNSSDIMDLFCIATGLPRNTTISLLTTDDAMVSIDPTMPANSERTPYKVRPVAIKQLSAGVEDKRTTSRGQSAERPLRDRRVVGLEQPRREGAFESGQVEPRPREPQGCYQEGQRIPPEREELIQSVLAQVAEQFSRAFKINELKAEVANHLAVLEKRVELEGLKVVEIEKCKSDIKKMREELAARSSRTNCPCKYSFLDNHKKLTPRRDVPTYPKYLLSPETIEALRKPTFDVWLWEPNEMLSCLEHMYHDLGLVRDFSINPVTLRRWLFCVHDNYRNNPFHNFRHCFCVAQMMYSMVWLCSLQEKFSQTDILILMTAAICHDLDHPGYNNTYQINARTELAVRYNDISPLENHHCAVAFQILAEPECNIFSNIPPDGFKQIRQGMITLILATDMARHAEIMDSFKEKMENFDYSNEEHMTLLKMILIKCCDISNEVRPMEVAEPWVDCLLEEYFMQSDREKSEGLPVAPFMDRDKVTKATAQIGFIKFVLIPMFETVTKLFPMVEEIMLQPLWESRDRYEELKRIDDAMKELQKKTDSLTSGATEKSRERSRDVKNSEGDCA

[5] = target: CYP2D6 (Homo sapiens, UniProt P10635); assay: Inhibition of CYP2D6 in human liver microsomes at 10 uM after 10 mins in presence of NADPH by LC-MS/MS analysis relative to control; type: ADME
[6] = Half life in human liver microsomes at 1 uM preincubated for 10 mins followed by NADPH addition measured up to 60 mins by LC-MS/MS analysis; type: ADME, microsome
[7] = target: Protein deacetylase HDAC6 (Mus musculus) (UniProt Q9Z2V5); assay: Inhibition of HDAC6 in Tg2576 mouse primary neurons assessed as reduction in phosphorylated tau protein level at 100 nM treated for 2 days measured at 24 hrs post last dose by Western blot analysis relative to control
Sequence of Protein deacetylase HDAC6 (Mus musculus) (Q9Z2V5 whole entry): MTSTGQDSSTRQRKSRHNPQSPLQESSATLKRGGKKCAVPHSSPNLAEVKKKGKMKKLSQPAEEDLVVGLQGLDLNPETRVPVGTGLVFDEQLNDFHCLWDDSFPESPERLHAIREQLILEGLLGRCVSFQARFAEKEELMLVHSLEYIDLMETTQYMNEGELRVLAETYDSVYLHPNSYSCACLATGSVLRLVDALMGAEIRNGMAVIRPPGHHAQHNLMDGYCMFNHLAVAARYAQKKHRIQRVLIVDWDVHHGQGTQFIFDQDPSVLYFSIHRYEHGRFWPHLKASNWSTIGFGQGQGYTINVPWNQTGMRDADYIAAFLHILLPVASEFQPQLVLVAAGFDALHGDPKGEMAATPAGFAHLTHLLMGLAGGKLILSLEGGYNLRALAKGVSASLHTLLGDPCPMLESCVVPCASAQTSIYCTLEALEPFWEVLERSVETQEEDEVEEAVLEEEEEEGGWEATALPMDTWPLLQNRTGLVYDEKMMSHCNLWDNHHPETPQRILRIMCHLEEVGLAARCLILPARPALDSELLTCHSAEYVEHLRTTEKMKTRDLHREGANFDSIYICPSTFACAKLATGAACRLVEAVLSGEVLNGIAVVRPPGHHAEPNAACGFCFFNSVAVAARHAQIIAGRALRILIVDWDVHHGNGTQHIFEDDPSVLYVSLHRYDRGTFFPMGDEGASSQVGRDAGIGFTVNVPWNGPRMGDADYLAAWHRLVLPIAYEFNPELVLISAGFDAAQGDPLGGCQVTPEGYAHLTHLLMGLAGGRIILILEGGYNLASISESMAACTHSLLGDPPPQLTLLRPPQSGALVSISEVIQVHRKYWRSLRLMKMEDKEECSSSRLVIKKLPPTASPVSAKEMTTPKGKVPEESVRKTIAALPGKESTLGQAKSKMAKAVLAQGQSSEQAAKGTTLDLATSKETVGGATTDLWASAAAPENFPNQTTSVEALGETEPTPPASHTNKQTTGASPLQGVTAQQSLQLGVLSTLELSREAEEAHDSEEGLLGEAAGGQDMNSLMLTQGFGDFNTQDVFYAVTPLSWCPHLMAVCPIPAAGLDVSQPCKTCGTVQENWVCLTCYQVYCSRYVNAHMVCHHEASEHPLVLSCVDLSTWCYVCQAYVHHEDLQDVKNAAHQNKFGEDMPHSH

[8] = target: T2, Protein deacetylase HDAC6 (Homo sapiens, UniProt Q9UBN7); assay: Inhibition of full length human recombinant N-terminal GST-tagged HDAC6 expressed in baculovirus infected sf9 cells using fluorogenic HDAC substrate 3 after 30 mins by fluorescence assay
T2 sequence (Q9UBN7 whole entry): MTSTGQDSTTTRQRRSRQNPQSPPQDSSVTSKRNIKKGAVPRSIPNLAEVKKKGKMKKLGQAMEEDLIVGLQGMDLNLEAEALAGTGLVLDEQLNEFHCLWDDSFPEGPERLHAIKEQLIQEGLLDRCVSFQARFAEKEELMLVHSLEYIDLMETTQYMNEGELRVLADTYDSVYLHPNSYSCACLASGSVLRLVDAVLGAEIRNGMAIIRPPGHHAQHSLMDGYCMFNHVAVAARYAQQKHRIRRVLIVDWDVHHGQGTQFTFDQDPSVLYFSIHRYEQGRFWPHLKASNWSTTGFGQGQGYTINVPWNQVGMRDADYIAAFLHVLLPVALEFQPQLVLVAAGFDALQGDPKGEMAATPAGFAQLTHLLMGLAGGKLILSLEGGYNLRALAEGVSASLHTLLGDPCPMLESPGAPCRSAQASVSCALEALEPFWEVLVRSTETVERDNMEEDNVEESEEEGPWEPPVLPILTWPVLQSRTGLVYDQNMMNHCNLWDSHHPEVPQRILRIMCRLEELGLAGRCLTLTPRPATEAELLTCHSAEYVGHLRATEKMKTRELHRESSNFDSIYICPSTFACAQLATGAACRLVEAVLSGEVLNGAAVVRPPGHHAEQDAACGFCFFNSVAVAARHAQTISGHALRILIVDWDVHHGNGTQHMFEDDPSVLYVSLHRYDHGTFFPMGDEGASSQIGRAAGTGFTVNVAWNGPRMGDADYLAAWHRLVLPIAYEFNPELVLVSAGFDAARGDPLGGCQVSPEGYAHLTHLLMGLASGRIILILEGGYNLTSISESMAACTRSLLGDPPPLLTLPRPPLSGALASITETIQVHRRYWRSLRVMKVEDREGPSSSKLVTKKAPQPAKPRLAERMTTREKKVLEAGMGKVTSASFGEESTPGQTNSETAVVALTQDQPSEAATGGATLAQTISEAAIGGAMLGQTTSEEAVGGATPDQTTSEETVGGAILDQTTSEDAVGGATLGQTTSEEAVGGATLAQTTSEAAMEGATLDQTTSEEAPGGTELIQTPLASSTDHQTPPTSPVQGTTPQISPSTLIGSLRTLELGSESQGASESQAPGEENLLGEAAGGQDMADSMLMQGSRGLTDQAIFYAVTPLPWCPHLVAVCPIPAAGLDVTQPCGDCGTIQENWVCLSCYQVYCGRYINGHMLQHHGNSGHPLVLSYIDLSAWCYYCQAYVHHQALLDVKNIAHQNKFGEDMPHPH

[9] = cells; conditions: Homo sapiens, SH-SY5Y, 2 h, read-out: FC
[10] = target: Histone deacetylase 4 (Homo sapiens, UniProt P56524); assay: Inhibition of human HDAC4
Sequence of Histone deacetylase 4 (P56524 whole entry, the tested form may be a part): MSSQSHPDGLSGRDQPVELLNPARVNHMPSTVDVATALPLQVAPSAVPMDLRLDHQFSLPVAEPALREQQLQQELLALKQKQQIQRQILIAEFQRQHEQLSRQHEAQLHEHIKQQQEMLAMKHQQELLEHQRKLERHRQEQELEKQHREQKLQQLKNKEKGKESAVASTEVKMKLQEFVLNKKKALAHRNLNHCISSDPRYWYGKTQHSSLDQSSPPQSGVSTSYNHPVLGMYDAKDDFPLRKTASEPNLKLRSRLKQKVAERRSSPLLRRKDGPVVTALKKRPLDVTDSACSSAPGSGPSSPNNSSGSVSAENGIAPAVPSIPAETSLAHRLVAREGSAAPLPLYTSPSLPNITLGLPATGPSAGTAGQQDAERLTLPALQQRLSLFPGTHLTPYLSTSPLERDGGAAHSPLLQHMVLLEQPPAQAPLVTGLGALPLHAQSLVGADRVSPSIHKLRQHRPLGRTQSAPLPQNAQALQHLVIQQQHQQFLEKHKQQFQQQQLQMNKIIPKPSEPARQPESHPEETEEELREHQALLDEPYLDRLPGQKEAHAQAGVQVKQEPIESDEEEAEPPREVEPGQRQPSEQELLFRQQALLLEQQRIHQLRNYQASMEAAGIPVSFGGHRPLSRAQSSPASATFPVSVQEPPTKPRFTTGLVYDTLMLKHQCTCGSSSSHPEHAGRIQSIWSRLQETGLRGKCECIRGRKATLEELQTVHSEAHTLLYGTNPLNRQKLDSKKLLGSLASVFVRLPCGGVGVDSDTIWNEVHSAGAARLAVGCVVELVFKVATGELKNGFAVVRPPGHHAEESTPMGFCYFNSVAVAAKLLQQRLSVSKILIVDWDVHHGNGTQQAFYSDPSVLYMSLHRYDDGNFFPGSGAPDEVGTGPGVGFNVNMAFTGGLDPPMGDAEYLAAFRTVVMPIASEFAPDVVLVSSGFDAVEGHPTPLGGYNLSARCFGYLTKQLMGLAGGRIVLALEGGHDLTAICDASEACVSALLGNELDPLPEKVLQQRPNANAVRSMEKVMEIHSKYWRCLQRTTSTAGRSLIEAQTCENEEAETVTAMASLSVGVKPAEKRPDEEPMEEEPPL

[11] = target: Histone deacetylase 3/Nuclear receptor corepressor 2 (HDAC3/NCoR2) (Homo sapiens, UniProt O15379); assay: Inhibition of full length human recombinant C-terminal His-tagged HDAC3/N-terminal GST-tagged NCOR2 (95 to 489 residues) expressed in baculovirus infected sf9 cells using fluorogenic HDAC substrate 3 after 30 mins by fluorescence assay
[12] = Cytotoxicity against Tg2576 mouse primary neurons after 72 hrs by ATP luminescence assay; type: cell-based, Neuron; conditions: read-out: LC50
[13] = target: CYP1A2 (Homo sapiens, UniProt P05177); assay: Inhibition of CYP1A2 in human liver microsomes at 10 uM after 10 mins in presence of NADPH by LC-MS/MS analysis relative to control; type: ADME
[14] = target: T1, Histone deacetylase 1; assay: Inhibition of full length human recombinant C-terminal FLAG/His-tagged HDAC1 expressed in baculovirus infected sf9 cells using fluorogenic HDAC substrate 3 after 30 mins by fluorescence assay
[15] = target: Histone deacetylase 8 (Homo sapiens, UniProt Q9BY41); assay: Inhibition of human HDAC8
[16] = target: Histone deacetylase 2 (Homo sapiens, UniProt Q92769); assay: Inhibition of full length human recombinant C-terminal His-tagged HDAC2 expressed in baculovirus infected sf9 cells using fluorogenic HDAC substrate 3 after 30 mins by fluorescence assay
Sequence of Histone deacetylase 2 (Q92769 whole entry): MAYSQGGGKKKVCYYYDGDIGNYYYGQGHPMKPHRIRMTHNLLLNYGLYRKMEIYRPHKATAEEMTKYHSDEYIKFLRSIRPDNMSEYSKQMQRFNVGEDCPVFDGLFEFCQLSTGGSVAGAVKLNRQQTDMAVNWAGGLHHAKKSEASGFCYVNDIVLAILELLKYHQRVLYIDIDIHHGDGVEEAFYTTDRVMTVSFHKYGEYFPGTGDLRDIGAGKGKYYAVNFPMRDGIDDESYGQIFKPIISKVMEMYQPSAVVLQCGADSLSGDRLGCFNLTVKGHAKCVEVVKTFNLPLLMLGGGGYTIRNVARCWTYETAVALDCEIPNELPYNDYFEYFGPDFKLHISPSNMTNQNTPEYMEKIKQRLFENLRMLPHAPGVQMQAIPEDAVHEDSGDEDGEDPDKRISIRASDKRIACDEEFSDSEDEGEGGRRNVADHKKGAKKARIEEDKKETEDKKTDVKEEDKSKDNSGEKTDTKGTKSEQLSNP

[17] = cells; conditions: Homo sapiens, SH-SY5Y, 2 h, read-out: FC; remark: listed apart in the source
[18] = Cytotoxicity against human THLE2 cells after 72 hrs by vialight cell proliferation assay; type: cell-based, THLE-2; conditions: read-out: LC50
[19] = tested on: Mus musculus; assay: Cognitive enhancing effect in Tg2576 mouse model of Alzheimer's disease assessed as long term associative memory improvement by measuring freezing after electric shock at 40 mg/kg, ip for 2 weeks measured at 24 hrs post electric shock (reference value: 54%); type: functional
[20] = Inhibition of class-1 HDAC in human SH-SY5Y cells assessed as induction of AcH3K9 level at 160 nM after 2 hrs by AlphaLISA assay; type: cell-based; conditions: 0.16 µM
[21] = Half life in mouse liver microsomes at 1 uM preincubated for 10 mins followed by NADPH addition measured up to 60 mins by LC-MS/MS analysis; type: ADME, microsome
[22] = cells; conditions: Homo sapiens, SH-SY5Y, 2 h, read-out: FC; remark: listed apart in the source
[23] = target: cGMP-inhibited 3',5'-cyclic phosphodiesterase 3A (Homo sapiens, UniProt Q14432); assay: Inhibition of PDE3A (unknown origin) using FAM-cGMP as substrate by fluorescence assay

Sequence of Histone deacetylase 5 (Q9UQL6 whole entry): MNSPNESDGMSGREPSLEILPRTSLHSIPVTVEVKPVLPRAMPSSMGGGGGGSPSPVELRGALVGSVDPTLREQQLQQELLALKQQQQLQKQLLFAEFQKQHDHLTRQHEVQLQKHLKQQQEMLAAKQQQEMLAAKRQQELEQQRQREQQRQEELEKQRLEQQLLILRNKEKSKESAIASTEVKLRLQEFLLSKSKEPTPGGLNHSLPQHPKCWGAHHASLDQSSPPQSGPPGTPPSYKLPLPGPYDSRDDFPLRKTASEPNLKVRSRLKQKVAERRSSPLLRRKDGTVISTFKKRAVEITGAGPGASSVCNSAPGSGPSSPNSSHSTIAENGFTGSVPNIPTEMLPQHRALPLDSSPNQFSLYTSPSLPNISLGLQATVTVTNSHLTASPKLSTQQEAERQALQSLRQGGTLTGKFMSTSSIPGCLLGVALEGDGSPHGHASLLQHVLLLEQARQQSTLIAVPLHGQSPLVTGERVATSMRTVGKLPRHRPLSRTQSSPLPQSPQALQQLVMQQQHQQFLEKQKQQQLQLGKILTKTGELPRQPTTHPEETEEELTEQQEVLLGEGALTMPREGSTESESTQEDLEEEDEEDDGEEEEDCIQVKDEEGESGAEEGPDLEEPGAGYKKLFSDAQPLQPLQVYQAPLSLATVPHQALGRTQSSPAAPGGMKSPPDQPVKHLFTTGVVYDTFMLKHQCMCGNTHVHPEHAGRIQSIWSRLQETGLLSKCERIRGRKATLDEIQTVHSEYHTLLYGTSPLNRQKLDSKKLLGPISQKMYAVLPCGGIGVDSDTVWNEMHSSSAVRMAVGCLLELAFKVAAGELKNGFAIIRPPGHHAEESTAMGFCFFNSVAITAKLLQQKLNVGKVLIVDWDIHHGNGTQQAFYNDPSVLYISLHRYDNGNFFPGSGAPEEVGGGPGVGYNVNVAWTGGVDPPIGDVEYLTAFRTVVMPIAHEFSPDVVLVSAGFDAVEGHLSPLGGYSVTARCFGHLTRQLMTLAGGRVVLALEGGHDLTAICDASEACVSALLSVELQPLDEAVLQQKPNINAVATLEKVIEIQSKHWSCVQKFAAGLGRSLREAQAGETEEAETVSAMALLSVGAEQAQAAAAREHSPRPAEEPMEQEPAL

With CCCc1nn(C)c2c(=O)[nH]c(-c3cc(Cc4ccc(C(=O)NO)s4)ccc3OCC)nc12 the Activity [1] was 48%, the IC50 [2] was over 10 µM and the IC50 [3] was 0.841 µM. The IC50 [4] was over 10 µM, the inhibition at 10 min, 10 µM [5] was under 50% and the half-life at 1 µM [6] was 32.7 min. The inhibition [7] was 30%, the IC50 [8] was 0.015 µM and the fold induction at 1 µM [9] was 12.1. For the same compound, the IC50 [10] was over 10 µM, the IC50 [11] was 2.09 µM and the CC50 at 72 h [12] was 46.3 µM. The inhibition at 10 min, 10 µM [13] was under 50%, the IC50 [14] was 0.345 µM and the IC50 [15] was over 10 µM. For the same compound, the IC50 [16] was 3.72 µM, the fold induction at 0.1 µM [17] was 1.8 and the CC50 at 72 h [18] was 6.81 µM. The Activity [19] was 68%, the “inhibition (INH)” value [20] was “Active” and the half-life at 1 µM [21] was 5.2 min. It also gave a fold induction at 0.5 µM [22] of 8.2 and an IC50 [23] of 3.2 µM.
